Literature values, collected in US20220151901A1, “A METHOD OF COLORING KERATINOUS MATERIAL COMPRISING THE USE OF AN ORGANOSILICON COMPOUND, A COLORING COMPOUND, AND A MIXTURE OF SILICONES” (Henkel AG & Co. KGaA, priority 2019, published 2022).

Conditions: 25° C.

SMILES | solubility in water | solubility in water (in words)
CCN(Cc1cccc(S(=O)(=O)[O-])c1)c1ccc(C(=C2C=CC(=[N+](CC)Cc3cccc(S(=O)(=O)[O-])c3)C=C2)c2ccccc2S(=O)(=O)[O-])cc1.[Na+].[Na+] [Acid Blue 9] | more than 20 % by weight | 
O=S(=O)([O-])c1ccc(N=Nc2c(O)ccc3ccccc23)cc1.[Na+] [Acid Orange 7, sodium salt of 4-[(2-hydroxy-1-naphthyl)azo]benzene sulphonate] | more than 7 g/L | 
Nc1cc(S(=O)(=O)[O-])cc2cc(S(=O)(=O)[O-])c(N=Nc3ccccc3)c(O)c12.[Na+].[Na+] [Acid Red 33, disodium salt of 5-amino-4-hydroxy-3-(phenylazo)-naphthalene-2,7-disulphonate] | 2500 µg/mL | 
O=C([O-])c1c(Cl)c(Cl)c(Cl)c(Cl)c1-c1c2c(Br)cc(=O)c(Br)c-2oc2c(Br)c(O)cc(Br)c12.O=C([O-])c1c(Cl)c(Cl)c(Cl)c(Cl)c1-c1c2c(Br)cc(=O)c(Br)c-2oc2c(Br)c(O)cc(Br)c12.[Na+].[Na+] [Acid Red 92, disodium salt of 3,4,5,6-tetrachloro-2-(1,4,5,8-tetrabromo-6-hydroxy-3-oxoxanthen-9-yl)benzoic acid] | greater than 10 g/L | 
O=C([O-])C1=NN(c2ccc(S(=O)(=O)[O-])cc2)C(=O)C1N=Nc1ccc(S(=O)(=O)[O-])cc1.[Na+].[Na+].[Na+] (centres unmarked) [Acid Yellow 23, trisodium salt of 4,5-dihydro-5-oxo-1-(4-sulfophenyl)-4-((4-sulfophenyl)azo)-1H-pyrazole-3-carboxylic acid] |  | highly soluble
